US20110071115A1, “PHARMACEUTICALLY USEFUL HETEROCYCLE-SUBSTITUTED LACTAMS” (CYLENE PHARMACEUTICALS, INC., priority 2009, published 2011)
Read-outs that look alike come from different tables or passages of the source.

How the values were obtained:
recombinant human Pim-2 = recombinant human Pim-2 (Homo sapiens, UniProt Q9P1W9); experiment: PIM-2 assay (33P-ATP filter plate); assay type: biochemical; conditions: 2.5 uM compound
Protocol: Test compounds dissolved and diluted in DMSO (2 μl) were added to a reaction mixture comprising 10 μl of 5× Reaction Buffer (40 mM MOPS pH 7.0, 5 mM EDTA), 10 of recombinant human Pim-2 solution (4 ng Pim-2 dissolved in dilution buffer (20 mM MOPS pH 7.0; EDTA 1 mM; 5% Glycerol; 0.01% Brij 35; […]; […] 2-mercaptoethanol; 1 mg/ml BSA)) and 8 ul of water. Reactions were initiated by the addition of 10 ul of ATP Solution (49% (15 mM MgCl2; 75 uM ATP) 1% ([γ-33P]ATP: Stock 1 mCi/100 μl; 3000 Ci/mmol (Perkin Elmer)) and 10 ul of substrate peptide solution (RSRSSYPAGT, dissolved in water at a concentration of 1 mM), Reactions were maintained for […] at 30° C. The reactions were quenched with 100 ul of 0.75% phosphoric acid, then transferred to and filtered through a Phosphocellulose filter plate (Millipore, MSPH-N6B-50). After washing each well 4 times with 0.75% phosphoric acid, scintillation fluid (20 μL) was added to each well and the residual radioactivity was measured using a Wallac luminescence counter.

MDAMB453 = experiment: Alamar Blue (AB) cell proliferation assay, MDAMB453; assay type: cell-based
Protocol: (§1) A representative cell-proliferation assay protocol using Alamar Blue dye (stored at 4° C., use 20 ul per well) is described hereafter.
(§2) c. Plate 4,000-5,000 cells per well in 100 μl of medium and seed into a 96-well plate according to the following plate layout. Add cell culture medium only to wells B10 to B12. Wells B1 to B9 have cells but no compound added.
(§3) d. Add 100 μl of 2× drug dilution to each well in a concentration shown in the plate layout above. At the same time, add 100 μl of media into the control wells (wells B10 to B12). Total volume is 200 μl/well.
(§4) e. Incubate four (4) days at 37° C., 5% CO2 in a humidified incubator.
(§5) f. Add 20 μl Alamar Blue reagent to each well.
(§6) g. Incubate for four (4) hours at 37° C., 5% CO2 in a humidified incubator.
(§7) h. Record fluorescence at an excitation wavelength of 544 nm and emission wavelength of 590 nm using a microplate reader.
(§8) In the assays, cells are cultured with a test compound for approximately four days, the dye is then added to the cells and fluorescence of […] dye is detected after approximately four hours. Different types of cells can be utilized in the assays (e.g., HCT-116 human colorectal carcinoma cells, PC-3 human prostatic cancer cells, MDA-MB231 human breast cancer cells, K-562 human chronic myelogenous leukemia (CML) cells, MiaPaca human pancreatic carcinoma cells, MV-4 human acute myeloid leukemia cells, and BxPC3 human pancreatic adenocarcinoma cells).

recombinant human CK2 = target: T1, recombinant human CK2 (Homo sapiens, UniProt P68400); experiment: CK2 assay (cell-free, 33P-ATP filter plate); assay type: biochemical
T1 construct: purchased Upstate
T1 sequence (P68400 whole entry): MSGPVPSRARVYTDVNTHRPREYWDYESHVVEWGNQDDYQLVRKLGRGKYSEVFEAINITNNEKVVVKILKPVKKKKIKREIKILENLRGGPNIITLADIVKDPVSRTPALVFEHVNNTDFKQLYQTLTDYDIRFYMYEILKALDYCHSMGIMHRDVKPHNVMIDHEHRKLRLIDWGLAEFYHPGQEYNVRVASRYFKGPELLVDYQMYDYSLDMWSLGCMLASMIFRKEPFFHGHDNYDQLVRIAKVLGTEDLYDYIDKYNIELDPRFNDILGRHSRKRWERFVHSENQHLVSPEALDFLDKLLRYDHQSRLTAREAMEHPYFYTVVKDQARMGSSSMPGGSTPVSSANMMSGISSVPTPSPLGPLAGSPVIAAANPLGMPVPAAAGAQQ
T1 sequence (P67870 whole entry partner): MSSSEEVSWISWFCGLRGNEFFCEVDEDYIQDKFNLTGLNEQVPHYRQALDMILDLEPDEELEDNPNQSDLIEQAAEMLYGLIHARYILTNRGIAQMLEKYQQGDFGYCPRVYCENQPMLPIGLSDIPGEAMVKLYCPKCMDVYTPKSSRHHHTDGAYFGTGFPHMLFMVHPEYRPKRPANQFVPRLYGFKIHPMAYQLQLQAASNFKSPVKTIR
Protocol: Modulatory activity of compounds described herein was assessed in vitro in cell-free CK2 assays by the following method.
Test compounds in aqueous solution were added at a volume of 10 microliters, to a reaction mixture comprising 10 microliters Assay Dilution Buffer (ADB; 20 mM MOPS, pH 7.2, 25 mM beta-glycerolphosphate, 5 mM EGTA, 1 mM sodium orthovanadate and 1 mM dithiothreitol), 10 microliters of substrate peptide (RRRDDDSDDD, dissolved in ADB at a concentration of 1 mM), 10 microliters of recombinant human CK2 (25 ng dissolved in ADB; Upstate). Reactions were initiated by the addition of 10 microliters of ATP Solution (90% 75 mM MgCl2, 75 micromolar ATP dissolved in ADB; 10% [γ-^33P]ATP (stock 1 mCi/100 μl; 3000 Ci/mmol (Perkin Elmer) and maintained for 10 minutes at 30° C. The reactions were quenched with 100 microliters of 0.75% phosphoric acid, then transferred to and filtered through a phosphocellulose filter plate (Millipore). After washing each well 5 times with 0.75% phosphoric acid, the plate was dried under vacuum for 5 min and, following the addition of 15 ul of scintilation fluid to each well, the residual radioactivity was measured using a Wallac luminescence counter.

[1] = tested on: BxPC3 human pancreatic adenocarcinoma cells; experiment: Alamar Blue (AB) cell proliferation assay, BxPC3; assay type: cell-based
Protocol: as §1, §2, §3, §4, §5, §6, §7, §8

Chain of recombinant human Pim-2 (Q9P1W9 whole entry): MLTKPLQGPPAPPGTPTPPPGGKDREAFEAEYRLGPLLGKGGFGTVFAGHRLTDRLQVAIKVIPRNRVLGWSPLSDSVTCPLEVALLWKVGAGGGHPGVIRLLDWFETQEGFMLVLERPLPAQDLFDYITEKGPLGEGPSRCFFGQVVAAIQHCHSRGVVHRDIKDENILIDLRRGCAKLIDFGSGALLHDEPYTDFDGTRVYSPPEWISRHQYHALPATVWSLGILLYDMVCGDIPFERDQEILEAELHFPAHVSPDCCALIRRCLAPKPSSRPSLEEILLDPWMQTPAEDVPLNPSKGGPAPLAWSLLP

Row | inhibition at 2.5 µM (recombinant human Pim-2; read-out: PIM2: % inh 2.5 uM) [%] | IC50 (MDAMB453; Homo sapiens, MDA-MB-453, MDAMB453 cells) [µM] | IC50 (recombinant human CK2) [nM] | IC50 ([1]; Homo sapiens, BXPC-3) [µM] | PIM2: % inh 2.5 uM (recombinant human Pim-2) [%] | IC50 (MDAMB453; MDAMB453 cells) [µM] | IC50 [1] [µM] | Compound
1 | 6.72 | 6.09 | < 1000 | 11.3 | – | – | – | C[C@H](Nc1cc(NC2CC2)n2ncc(/C=C3\CC(=O)NC3=O)c2n1)c1ccccc1 [Example A12]
2 | – | – | < 100 | – | 73.771 | > 30 | > 30 | O=C(O)CCCC(=O)OCN1C(=O)C/C(=C\c2cnn3c(NC4CC4)cc(Nc4cc(Cl)ccc4F)nc23)C1=O [Example P2]
3 | – | – | < 1000 | – | 49.047 | 10.5 | 12.4 | CC(N)C(=O)OCN1C(=O)C/C(=C\c2cnn3c(NC4CC4)cc(Nc4cc(Cl)ccc4F)nc23)C1=O (stereo not drawn) [Example P7, (E)-(3-((5-(5-chloro-2-fluorophenylamino)-7-(cyclopropylamino)pyrazolo[1,5-a]pyrimidin-3-yl)methylene)-2,5-dioxopyrrolidin-1-yl)methy 2-aminopropanoate]
